Measurements as given in patent US20170204092A1, “4,5-DIHYDROISOXAZOLE DERIVATIVES AS NAMPT INHIBITORS” (AURIGENE DISCOVERY TECHNOLOGIES LIMITED, priority 2014, published 2017).
Like-named read-outs stand apart in the source and are kept apart here.

How the values were obtained:
MiaPaCa-2 cells = assay: Cytotoxicity assay in MiaPaCa-2 (XTT, 72 h); format: cell-based; conditions: for inhibition at 10 µM: read-out: Cell cytotoxicity assay (% Inhibition at 10 μM); for IC50: XTT, read-out: Cell cytotoxicity assay IC50 in range; for inhibition at 1 µM: read-out: Cell cytotoxicity assay (% Inhibition at 1 μM)
Procedure: MiaPaCa-2 Cells (ATCC) were seeded in 96 well plates (Costar clear flat bottom) at a density of 3000 cells/well and allowed to settle overnight. Test compounds were dissolved in dimethyl sulphoxide (DMSO-Sigma Aldrich, D2650) and incubated with MiaPaCa-2 cells for 72 h. Post 72 h, 50 μl XTT (1 mg/mL; Invitrogen, X 6493) and PMS ([…]; Sigma Aldrich, P9625) reagents were added to the cells in 100 μl of cDMEM (Sigma Aldrich-D5648)+10% FBS (Hyclone-5430088-03)+1×Pen Strep (Sigma Aldrich-P0781). After 1 hour incubation with XTT and PMS absorbance was monitored with Spectramax M3 (Molecular Device). Percentage inhibition of proliferation at 10 μM and 1 μM concentrations was calculated by considering DMSO control as 0% inhibition. IC50 values were plotted using Graph pad prism software (Graph pad Inc, La Jola, Calif., USA).

[1] = target: T1, recombinant NAMPT wild type protein (Homo sapiens, UniProt P43490); assay: NAMPT fluorescence assay; format: biochemical; conditions: 50 ng NAMPT, 2 μM Nam, 10 point dose response; read-out: Fluorescence assay IC50 in range
T1 construct: made in house; host or cells: E. coli
Procedure: The enzymatic assay was standardized using in-house recombinant NAMPT wild type protein from E. coli expression & NAM (Cat #47865-U) as a substrate. The product NMN formed after enzymatic reaction was derivatized to a fluorescent derivative through sequentially reacting with acetophenone/KOH and formic acid. The derivatized fluorescent NMN derivative was detected at 382 nm excitation wavelength and a 445 nm emission wavelength. […] The fluorescence was measured (Excitation at 382 nm & Emission at 445 nm) using Victor^3 V fluorimeter. The data is calculated using the RFU values. The final concentration of DMSO was 2% in the assay. Each individual IC50 was determined using 10 point dose response curve generated by GraphPad Prism software Version 4 (San Diego, Calif., USA) using nonlinear regression curve fit for sigmoidal dose response (variable slope).

[2] = Homo sapiens, MIA PaCa-2, 72 h, 10 μM, DMSO control = 0% inhibition
[3] = Homo sapiens, MIA PaCa-2, 72 h, DMSO control = 0% inhibition

T1 sequence (P43490 whole entry): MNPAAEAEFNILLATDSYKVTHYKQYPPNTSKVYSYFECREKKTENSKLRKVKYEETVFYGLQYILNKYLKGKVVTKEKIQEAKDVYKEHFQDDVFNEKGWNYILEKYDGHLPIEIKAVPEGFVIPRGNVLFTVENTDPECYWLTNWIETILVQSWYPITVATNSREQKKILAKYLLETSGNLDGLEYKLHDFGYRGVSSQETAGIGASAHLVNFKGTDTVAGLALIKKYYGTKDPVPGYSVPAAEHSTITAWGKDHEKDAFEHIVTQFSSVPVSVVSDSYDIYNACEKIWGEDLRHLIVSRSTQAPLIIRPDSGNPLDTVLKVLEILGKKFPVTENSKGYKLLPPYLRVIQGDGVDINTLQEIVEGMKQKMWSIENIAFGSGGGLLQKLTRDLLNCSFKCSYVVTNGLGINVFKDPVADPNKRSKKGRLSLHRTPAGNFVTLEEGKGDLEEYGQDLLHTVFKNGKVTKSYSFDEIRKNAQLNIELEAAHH

| IC50 [1] | SMILES | Cell cytotoxicity assay (% Inhibition at 1 μM) (MiaPaCa-2 cells; DMSO control = 0% inhibition) | inhibition at 10 µM (MiaPaCa-2 cells; [2]) | IC50 (MiaPaCa-2 cells) | inhibition at 1 µM (MiaPaCa-2 cells; [3]) | IC50 (MiaPaCa-2 cells; Homo sapiens, MIA PaCa-2, 72 h) | Cell cytotoxicity assay (% Inhibition at 10 μM) (MiaPaCa-2 cells; 10 μM, DMSO control = 0% inhibition) |
| --- | --- | --- | --- | --- | --- | --- | --- |
| < 10 nM | Cc1cc(NC(=O)NCC2=NOC(COc3cccnc3-c3ccc(F)nc3)C2)ccn1 (racemic) [Example 16, 1-((5-(((6′-fluoro-[2,3′-bipyridin]-3-yl)oxy)methyl)-4,5-dihydroisoxazol-3-yl)methyl)-3-(2-methylpyridin-4-yl)urea] | – | 89% | – | 89% | 50 to 250 nM | – |
| 10 to 25 nM | O=C(NCC1=NOC(COc2cc(Cl)cnc2-c2ccc(F)nc2)C1)c1ccc2nccn2c1 (racemic) [Example 14, N-((5-(((5-chloro-6′-fluoro-[2,3′-bipyridin]-3-yl)oxy)methyl)-4,5-dihydro-isoxazol-3-yl)methyl)imidazo[1,2-a]pyridine-6-carboxamide] | – | 95% | – | 95% | < 50 nM | – |
| > 25 nM | O=C(NCC1=NOC(COc2cc(Cl)cnc2-c2cccnc2)C1)c1ccc2nccn2c1 (single isomer, unassigned) [Example 13a, N-((5-(((5-chloro-[2,3′-bipyridin]-3-yl)oxy)methyl)-4,5-dihydroisoxazol-3-yl)methyl)imidazo[1,2-a]pyridine-6-carboxamide] | 20% | 93% | > 250 nM | – | – | – |
| < 10 nM | O=C(NCC1=NOC(COc2cccnc2-c2ccc(F)nc2)C1)Nc1ccncc1 (racemic) [Example 17, 1-((5-(((6′-fluoro-[2,3′-bipyridin]-3-yl)oxy)methyl)-4,5-dihydroisoxazol-3-yl)methyl)-3-(pyridin-4-yl)urea] | – | 89% | – | 90% | < 50 nM | – |
| 10 to 25 nM | Cc1cc(NC(=O)NCC2=NOC(COc3cccnc3-c3cnn(C)c3)C2)ccn1 (racemic) [Example 19, 1-((5-(((2-(1-methyl-1H-pyrazol-4-yl)pyridin-3-yl)oxy)methyl)-4,5-dihydroisoxazol-3-yl)methyl)-3-(2-methylpyridin-4-yl)urea] | – | 82% | – | 17% | > 250 nM | – |
| > 25 nM | O=C(NCC1=NOC(COc2cccnc2-c2ccc(F)nc2)C1)Nc1ccnnc1 (racemic) [Example 18, 1-((5-(((6′-fluoro-[2,3′-bipyridin]-3-yl)oxy)methyl)-4,5-dihydroisoxazol-3-yl)methyl)-3-(pyridazin-4-yl)urea] | – | 89% | – | 90% | 50 to 250 nM | – |

More lines, now with the values behind:

| SMILES | IC50 [1] | Cell cytotoxicity assay (% Inhibition at 1 μM) (MiaPaCa-2 cells; DMSO control = 0% inhibition) | inhibition at 10 µM (MiaPaCa-2 cells; [2]) | IC50 (MiaPaCa-2 cells) | inhibition at 1 µM (MiaPaCa-2 cells; [3]) | IC50 (MiaPaCa-2 cells; Homo sapiens, MIA PaCa-2, 72 h) | Cell cytotoxicity assay (% Inhibition at 10 μM) (MiaPaCa-2 cells; 10 μM, DMSO control = 0% inhibition) |
| --- | --- | --- | --- | --- | --- | --- | --- |
| O=C(NCC1=NOC(COc2cc(F)cnc2-c2ccc(F)nc2)C1)c1ccc2nccn2c1 (single isomer, unassigned) [Example 9a, N-((5-(((5,6′-difluoro-[2,3′-bipyridin]-3-yl)oxy)methyl)-4,5-dihydroisoxazol-3-yl)methyl)imidazo[1,2-a]pyridine-6-carboxamide] | < 10 nM | 12% | 90% | > 250 nM | – | – | – |
| Cc1cnc(-c2ccc(F)nc2)c(OCC2CC(CNC(=O)c3ccc4nccn4c3)=NO2)c1 (single isomer, unassigned) [Example 11a, N-((5-(((6′-fluoro-5-methyl-[2,3′-bipyridin]-3-yl)oxy)methyl)-4,5-dihydroisoxazol-3-yl)methyl)imidazo[1,2-a]pyridine-6-carboxamide] | 10 to 25 nM | – | 100% | > 250 nM | 88% | – | – |
| O=C(NCC1=NOC(COc2cccnc2-c2ccc(F)nc2)C1)c1ccc2nccn2c1 (single isomer, unassigned) [Example 4a, N-((5-(((6′-fluoro-[2,3′-bipyridin]-3-yl)oxy)methyl)-4,5-dihydroisoxazol-3-yl)methyl)imidazo[1,2-a]pyridine-6-carboxamide] | < 10 nM | 8% | 83% | > 250 nM | – | – | – |
| Cc1cnc(-c2ccc(F)nc2)c(OCC2CC(CNC(=O)c3ccc4nccn4c3)=NO2)c1 (racemic) [Example 11, N-((5-(((6′-fluoro-5-methyl-[2,3′-bipyridin]-3-yl)oxy)methyl)-4,5-dihydroisoxazol-3-yl)methyl)imidazo[1,2-a]pyridine-6-carboxamide] | 10 to 25 nM | – | 95% | – | 96% | < 50 nM | – |
| O=C(NCC1=NOC(COc2cccnc2-c2ccc(Cl)nc2)C1)c1ccc2nccn2c1 (racemic) [Example 8, N-((5-(((6′-chloro-[2,3′-bipyridin]-3-yl)oxy)methyl)-4,5-dihydroisoxazol-3-yl)methyl)imidazo[1,2-a]pyridine-6-carboxamide] | 10 to 25 nM | – | – | – | – | < 50 nM | – |
| O=C(NCC1=NOC(COc2cccnc2-c2cccnc2)C1)c1ccc2nccn2c1 (single isomer, unassigned) [Example 7a, N-((5-(([2,3′-bipyridin]-3-yloxy)methyl)-4,5-dihydroisoxazol-3-yl)methyl)-imidazo[1,2-a]pyridine-6-carboxamide] | < 10 nM | – | – | < 50 nM | – | – | – |
| Cc1ccc(OCC2CC(CNC(=O)c3ccc4nccn4c3)=NO2)c(-c2ccc(F)nc2)n1 (single isomer, unassigned) [Example 12b, N-((5-(((6′-fluoro-6-methyl-[2,3′-bipyridin]-3-yl)oxy)methyl)-4,5-dihydroisoxazol-3-yl)methyl)imidazo[1,2-a]pyridine-6-carboxamide] | 10 to 25 nM | 100% | – | < 50 nM | – | – | 100% |
| O=C(NCC1=NOC(COc2ncccc2-c2ccc(F)nc2)C1)c1ccc2nccn2c1 (racemic) [Example 2, N-((5-(((6′-fluoro-[3,3′-bipyridin]-2-yl)oxy)methyl)-4,5-dihydroisoxazol-3-yl)methyl)-imidazo[1,2-a]pyridine-6-carboxamide] | < 10 nM | – | 97% | – | 95% | 50 to 250 nM | – |
| Cc1ccc(OCC2CC(CNC(=O)c3ccc4nccn4c3)=NO2)c(-c2ccc(F)nc2)n1 (single isomer, unassigned) [Example 12a, N-((5-(((6′-fluoro-6-methyl-[2,3′-bipyridin]-3-yl)oxy)methyl)-4,5-dihydroisoxazol-3-yl)methyl)imidazo[1,2-a]pyridine-6-carboxamide] | 10 to 25 nM | 45% | 96% | > 250 nM | – | – | – |
| O=C(NCC1=NOC(COc2cc(F)cnc2-c2ccc(F)nc2)C1)c1ccc2nccn2c1 (racemic) [Example 9, N-((5-(((5,6′-difluoro-[2,3′-bipyridin]-3-yl)oxy)methyl)-4,5-dihydroisoxazol-3-yl)methyl)imidazo[1,2-a]pyridine-6-carboxamide] | 10 to 25 nM | – | 89% | – | 88% | < 50 nM | – |
| Cn1cc(-c2cccnc2OCC2CC(CNC(=O)c3ccc4nccn4c3)=NO2)cn1 (racemic) [Example 1, N-((5-(((3-(1-methyl-1H-pyrazol-4-yl)pyridin-2-yl)oxy)methyl)-4,5-dihydroisoxazol-3-yl)methyl)imidazo[1,2-a]pyridine-6-carboxamide] | < 10 nM | – | – | – | – | > 250 nM | – |
| O=C(NCC1=NOC(COc2cccnc2-c2ccc(F)nc2)C1)c1ccc2nccn2c1 (racemic) [Example 4, N-((5-(((6′-fluoro-[2,3′-bipyridin]-3-yl)oxy)methyl)-4,5-dihydroisoxazol-3-yl)methyl)imidazo[1,2-a]pyridine-6-carboxamide] | < 10 nM | – | 96% | – | 96% | < 50 nM | – |
